Data as given in patent US10131652B2, “Pyrimidinyloxy benzene derivatives as herbicides” (E. I. DU PONT DE NEMOURS AND COMPANY, priority 2014, dated 2018).
Read-outs that look alike come from different tables or passages of the source.

Legend:
Assay type in all cases: in vivo
[1] = test system: soybean (Glycine max); experiment: Test D pre-/postemergence plant response; details: Glycine max; for plant injury at 31 g/ha: 31 g ai/ha; for plant injury at 62 g/ha: 62 g ai/ha; for plant injury at 125 g/ha: 125 g ai/ha; for plant injury at 250 g/ha: 250 g ai/ha
In short: (§1)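 Preemergence: seeds in loam/sand blend treated with test chemicals in non-phytotoxic solvent with surfactant; postemergence: plants at 2–18 cm (1- to 4-leaf stage) in peat-based medium sprayed likewise. Greenhouse 13 to 15 days, then visual rating vs controls, 0 (no effect) to 100 (complete control).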

[2] = test system: oilseed rape (Brassica napus); experiment: Test D pre-/postemergence plant response; details: Brassica napus; for plant injury at 31 g/ha: 31 g ai/ha; for plant injury at 62 g/ha: 62 g ai/ha; for plant injury at 125 g/ha: 125 g ai/ha; for plant injury at 250 g/ha: 250 g ai/ha
In short: as §1

[3] = test system: yellow nutsedge (Cyperus esculentus); experiment: Test D pre-/postemergence plant response; details: Cyperus; for pest or weed control at 31 g/ha: 31 g ai/ha; for pest or weed control at 62 g/ha: 62 g ai/ha; for pest or weed control at 125 g/ha: 125 g ai/ha; for pest or weed control at 250 g/ha: 250 g ai/ha
In short: as §1

[4] = test system: large (Lg) crabgrass (Digitaria sanguinalis); experiment: Test D pre-/postemergence plant response; details: Digitaria sanguinalis; for pest or weed control at 31 g/ha: 31 g ai/ha; for pest or weed control at 62 g/ha: 62 g ai/ha; for pest or weed control at 125 g/ha: 125 g ai/ha; for pest or weed control at 250 g/ha: 250 g ai/ha
In short: as §1

[5] = test system: velvetleaf (Abutilon theophrasti); experiment: Test D pre-/postemergence plant response; details: Abutilon theophrasti; for pest or weed control at 31 g/ha: 31 g ai/ha; for pest or weed control at 62 g/ha: 62 g ai/ha; for pest or weed control at 125 g/ha: 125 g ai/ha; for pest or weed control at 250 g/ha: 250 g ai/ha
In short: as §1

[6] = test system: winter wheat (Triticum aestivum); experiment: Test D pre-/postemergence plant response; details: Triticum aestivum; for plant injury at 31 g/ha: 31 g ai/ha; for plant injury at 62 g/ha: 62 g ai/ha; for plant injury at 125 g/ha: 125 g ai/ha; for plant injury at 250 g/ha: 250 g ai/ha
In short: as §1

[7] = test system: johnsongrass (Sorghum halepense); experiment: Test D pre-/postemergence plant response; details: Sorghum halepense; for pest or weed control at 31 g/ha: 31 g ai/ha; for pest or weed control at 62 g/ha: 62 g ai/ha; for pest or weed control at 125 g/ha: 125 g ai/ha; for pest or weed control at 250 g/ha: 250 g ai/ha
In short: as §1

[8] = test system: barnyardgrass (Echinochloa crus-galli); experiment: Test C flooded paddy test plant response; details: Echinochloa crus-galli; Flood, 250 g ai/ha; scale of 0 to 100 where 0 is no effect and 100 is complete control; 13 to 15 days; read-out: Barnyardgrass plant response rating
In short: (§2)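 Scale 0 (no effect) to 100 (complete control), assigned visually versus controls after 13–15 d greenhouse. Application: directly to paddy water, 3 cm flood depth kept constant, 2-leaf stage.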

[9] = test system: small-flower umbrella sedge (Cyperus difformis); experiment: Test C flooded paddy test plant response; details: Cyperus difformis; Flood, 250 g ai/ha; scale of 0 to 100 where 0 is no effect and 100 is complete control; 13 to 15 days; read-out: Sedge, Umbrella plant response rating
In short: as §2

[10] = test system: rice (Oryza sativa); experiment: Test C flooded paddy test plant response; details: Oryza sativa; Flood, 250 g ai/ha; scale of 0 to 100 where 0 is no effect and 100 is complete control; 13 to 15 days; read-out: Rice plant response rating
In short: as §2

[11] = test system: ducksalad (Heteranthera limosa); experiment: Test C flooded paddy test plant response; details: Heteranthera limosa; Flood, 250 g ai/ha; scale of 0 to 100 where 0 is no effect and 100 is complete control; 13 to 15 days; read-out: Ducksalad plant response rating
In short: as §2

[12] = test system: wild oat (Avena fatua); experiment: Test D postemergence plant response; details: Avena fatua, post-emergence
In short: (§3)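 Postemergence spray on plants 2–18 cm tall (1- to 4-leaf stage), grown in pots of peat/vermiculite medium. Plants were kept in a greenhouse for 13–15 days, then visually rated against untreated controls on a 0 (no effect) to 100 (complete control) scale.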

[13] = test system: kochia (Kochia scoparia); experiment: Test D postemergence plant response; details: Bassia scoparia, post-emergence
In short: as §3

[14] = test system: chickweed (common chickweed, Stellaria media); experiment: Test D postemergence plant response; details: Stellaria media, post-emergence
In short: as §3

[15] = post-emergence, Postemergence, scale 0 to 100, 0 no effect, 100 complete control, read-out: Plant response rating, Soybean
[16] = pre-emergence, Preemergence, read-out: Plant response rating (scale 0 to 100), Soybean
[17] = pre-emergence, Preemergence, scale 0 to 100 (0 no effect, 100 complete control), read-out: Plant response rating, Soybean
[18] = post-emergence, Postemergence, scale 0 to 100, 0 no effect, 100 complete control, read-out: Plant response rating, Oilseed Rape
[19] = pre-emergence, Preemergence, read-out: Plant response rating (scale 0 to 100), Oilseed Rape
[20] = pre-emergence, Preemergence, scale 0 to 100 (0 no effect, 100 complete control), read-out: Plant response rating, Oilseed Rape
[21] = post-emergence, Postemergence, scale 0 to 100, 0 no effect, 100 complete control, read-out: Plant response rating, Nutsedge, Yellow
[22] = pre-emergence, Preemergence, read-out: Plant response rating (scale 0 to 100), Nutsedge, Yellow
[23] = pre-emergence, Preemergence, scale 0 to 100 (0 no effect, 100 complete control), read-out: Plant response rating, Nutsedge, Yellow
[24] = post-emergence, Postemergence, scale 0 to 100, 0 no effect, 100 complete control, read-out: Plant response rating, Crabgrass, Large
[25] = pre-emergence, Preemergence, read-out: Plant response rating (scale 0 to 100), Crabgrass, Large
[26] = pre-emergence, Preemergence, scale 0 to 100 (0 no effect, 100 complete control), read-out: Plant response rating, Crabgrass, Large
[27] = post-emergence, Postemergence, scale 0 to 100, 0 no effect, 100 complete control, read-out: Plant response rating, Velvetleaf
[28] = pre-emergence, Preemergence, read-out: Plant response rating (scale 0 to 100), Velvetleaf
[29] = pre-emergence, Preemergence, scale 0 to 100 (0 no effect, 100 complete control), read-out: Plant response rating, Velvetleaf
[30] = post-emergence, Postemergence, scale 0 to 100, 0 no effect, 100 complete control, read-out: Plant response rating, Wheat
[31] = pre-emergence, Preemergence, read-out: Plant response rating (scale 0 to 100), Wheat
[32] = pre-emergence, Preemergence, scale 0 to 100 (0 no effect, 100 complete control), read-out: Plant response rating, Wheat
[33] = post-emergence, Postemergence, scale 0 to 100, 0 no effect, 100 complete control, read-out: Plant response rating, Johnsongrass
[34] = pre-emergence, Preemergence, read-out: Plant response rating (scale 0 to 100), Johnsongrass
[35] = pre-emergence, Preemergence, scale 0 to 100 (0 no effect, 100 complete control), read-out: Plant response rating, Johnsongrass

FC(F)c1cc(-c2ccccc2Oc2ncc(Br)cn2)no1 [Compound 62, 5-bromo-2-[2-[5-(difluoromethyl)-3-isoxazolyl]phenoxy]pyrimidine]
plant injury at 31 g/ha ([1]; post-emergence, Postemergence, scale 0 to 100 (0 no effect, 100 complete control), read-out: Soybean plant response rating): 80%
plant injury at 62 g/ha [1, 15]: 95%
plant injury at 125 g/ha [1, 15]: 98%
plant injury at 250 g/ha [1, 15]: 98%
plant injury at 125 g/ha [1, 16]: 85%
plant injury at 250 g/ha [1, 16]: 95%
plant injury at 31 g/ha [1, 17]: 60%
plant injury at 62 g/ha [1, 17]: 70%
plant injury at 31 g/ha ([2]; post-emergence, Postemergence, scale 0 to 100 (0 no effect, 100 complete control), read-out: Oilseed Rape plant response rating): 80%
plant injury at 62 g/ha [2, 18]: 90%
plant injury at 125 g/ha [2, 18]: 98%
plant injury at 250 g/ha [2, 18]: 100%
plant injury at 125 g/ha [2, 19]: 100%
plant injury at 250 g/ha [2, 19]: 100%
plant injury at 31 g/ha [2, 20]: 100%
plant injury at 62 g/ha [2, 20]: 98%
pest or weed control at 31 g/ha ([3]; post-emergence, Postemergence, scale 0 to 100 (0 no effect, 100 complete control), read-out: Nutsedge, Yellow plant response rating): 5%
pest or weed control at 62 g/ha [3, 21]: 5%
pest or weed control at 125 g/ha [3, 21]: 5%
pest or weed control at 250 g/ha [3, 21]: 10%
pest or weed control at 125 g/ha [3, 22]: 10%
pest or weed control at 250 g/ha [3, 22]: 60%
pest or weed control at 31 g/ha [3, 23]: 0%
pest or weed control at 62 g/ha [3, 23]: 5%
pest or weed control at 31 g/ha ([4]; post-emergence, Postemergence, scale 0 to 100 (0 no effect, 100 complete control), read-out: Crabgrass, Large plant response rating): 55%
pest or weed control at 62 g/ha [4, 24]: 35%
pest or weed control at 125 g/ha [4, 24]: 50%
pest or weed control at 250 g/ha [4, 24]: 65%
pest or weed control at 125 g/ha [4, 25]: 100%
pest or weed control at 250 g/ha [4, 25]: 100%
pest or weed control at 31 g/ha [4, 26]: 95%
pest or weed control at 62 g/ha [4, 26]: 100%
pest or weed control at 31 g/ha ([5]; post-emergence, Postemergence, scale 0 to 100 (0 no effect, 100 complete control), read-out: Velvetleaf plant response rating): 60%
pest or weed control at 62 g/ha [5, 27]: 70%
pest or weed control at 125 g/ha [5, 27]: 75%
pest or weed control at 250 g/ha [5, 27]: 85%
pest or weed control at 125 g/ha [5, 28]: 100%
pest or weed control at 250 g/ha [5, 28]: 100%
pest or weed control at 31 g/ha [5, 29]: 90%
pest or weed control at 62 g/ha [5, 29]: 100%
plant injury at 31 g/ha ([6]; post-emergence, Postemergence, scale 0 to 100 (0 no effect, 100 complete control), read-out: Wheat plant response rating): 30%
plant injury at 62 g/ha [6, 30]: 20%
plant injury at 125 g/ha [6, 30]: 10%
plant injury at 250 g/ha [6, 30]: 40%
plant injury at 125 g/ha [6, 31]: 40%
plant injury at 250 g/ha [6, 31]: 50%
plant injury at 31 g/ha [6, 32]: 0%
plant injury at 62 g/ha [6, 32]: 10%
pest or weed control at 31 g/ha ([7]; post-emergence, Postemergence, scale 0 to 100 (0 no effect, 100 complete control), read-out: Johnsongrass plant response rating): 25%
pest or weed control at 62 g/ha [7, 33]: 25%
pest or weed control at 125 g/ha [7, 33]: 75%
pest or weed control at 250 g/ha [7, 33]: 85%
pest or weed control at 125 g/ha [7, 34]: 90%
pest or weed control at 250 g/ha [7, 34]: 98%
pest or weed control at 31 g/ha [7, 35]: 30%
pest or weed control at 62 g/ha [7, 35]: 75%
pest or weed control at 250 g/ha [8]: 35%
pest or weed control at 250 g/ha [9]: 90%
plant injury at 250 g/ha [10]: 40%
pest or weed control at 250 g/ha [11]: 100%
pest or weed control at 31 g/ha ([12]; 31 g ai/ha, scale 0 to 100 (0 no effect, 100 complete control), read-out: Oat, Wild plant response rating): 30%
pest or weed control at 62 g/ha ([12]; 62 g ai/ha, scale 0 to 100, 0 no effect, 100 complete control, read-out: Plant response rating, Oat, Wild): 40%
pest or weed control at 125 g/ha ([12]; 125 g ai/ha, scale 0 to 100, 0 no effect, 100 complete control, read-out: Plant response rating, Oat, Wild): 50%
pest or weed control at 250 g/ha ([12]; 250 g ai/ha, scale 0 to 100, 0 no effect, 100 complete control, read-out: Plant response rating, Oat, Wild): 60%
pest or weed control at 31 g/ha ([13]; 31 g ai/ha, scale 0 to 100 (0 no effect, 100 complete control), read-out: Kochia plant response rating): 98%
pest or weed control at 62 g/ha ([13]; 62 g ai/ha, scale 0 to 100, 0 no effect, 100 complete control, read-out: Plant response rating, Kochia): 100%
pest or weed control at 125 g/ha ([13]; 125 g ai/ha, scale 0 to 100, 0 no effect, 100 complete control, read-out: Plant response rating, Kochia): 100%
pest or weed control at 250 g/ha ([13]; 250 g ai/ha, scale 0 to 100, 0 no effect, 100 complete control, read-out: Plant response rating, Kochia): 100%
pest or weed control at 31 g/ha ([14]; 31 g ai/ha, scale 0 to 100 (0 no effect, 100 complete control), read-out: Chickweed plant response rating): 70%
pest or weed control at 62 g/ha ([14]; 62 g ai/ha, scale 0 to 100, 0 no effect, 100 complete control, read-out: Plant response rating, Chickweed): 95%
pest or weed control at 125 g/ha ([14]; 125 g ai/ha, scale 0 to 100, 0 no effect, 100 complete control, read-out: Plant response rating, Chickweed): 98%
pest or weed control at 250 g/ha ([14]; 250 g ai/ha, scale 0 to 100, 0 no effect, 100 complete control, read-out: Plant response rating, Chickweed): 100%
